The results in this text go back to article PMC4147343, “Icotinib antagonizes ABCG2-mediated multidrug resistance, but not the pemetrexed resistance mediated by thymidylate synthase and ABCG2” (Oncotarget, 2014).

Series [1] has as its target T1, ABCG2 (Homo sapiens, UniProt Q9UNQ0).
T1 construct: wild-type ABCG2 in crude membranes of MCF-7 FLV1000 cells
T1 sequence (Q9UNQ0 1-655): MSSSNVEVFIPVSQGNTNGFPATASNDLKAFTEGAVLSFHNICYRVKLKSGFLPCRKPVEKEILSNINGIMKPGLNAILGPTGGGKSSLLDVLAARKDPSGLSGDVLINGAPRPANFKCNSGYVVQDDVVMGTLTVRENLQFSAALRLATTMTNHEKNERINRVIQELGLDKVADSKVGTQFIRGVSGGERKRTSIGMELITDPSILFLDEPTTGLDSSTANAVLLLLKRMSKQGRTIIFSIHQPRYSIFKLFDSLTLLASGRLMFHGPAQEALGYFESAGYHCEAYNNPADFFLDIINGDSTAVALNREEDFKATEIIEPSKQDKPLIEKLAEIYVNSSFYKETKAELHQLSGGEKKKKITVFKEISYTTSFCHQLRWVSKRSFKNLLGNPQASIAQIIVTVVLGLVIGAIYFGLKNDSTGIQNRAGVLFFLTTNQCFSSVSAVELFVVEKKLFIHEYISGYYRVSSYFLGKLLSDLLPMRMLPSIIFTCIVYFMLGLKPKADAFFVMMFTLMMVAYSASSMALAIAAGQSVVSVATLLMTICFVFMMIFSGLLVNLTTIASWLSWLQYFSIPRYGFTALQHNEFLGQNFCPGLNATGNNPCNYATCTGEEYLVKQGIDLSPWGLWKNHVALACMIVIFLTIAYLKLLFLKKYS
Briefly: competition of […]-IAAP photoaffinity labeling in crude membranes; also ATPase stimulation ([…] of maximum at […]). Type of series: binding.

The target of series [2] is T2, ABCG2 (Homo sapiens, UniProt Q9UNQ0, R482G).
T2 construct: full-length ABCG2 in transfected HEK293 cells (ABCG2-482-G2)
T2 sequence (Q9UNQ0 1-655 R482G): T1 sequence (Q9UNQ0 1-655) with R482G
Briefly: [3H]-mitoxantrone accumulation in transfected cells ([…]). Type of series: cell-based.

SMILES strings stand for the structures. Residue numbers refer to the chain shown, from its start.

In series [1], `C#Cc1cccc(Nc2ncnc3cc4c(cc23)OCCOCCOCCO4)c1` [Icotinib] came in with an IC50 of 1.61 µM. Further, the “[3H]-mitoxantrone accumulation in transfected cells (1.0 and 5.0 μM)” value in series [2] was “significantly increased intracellular accumulation of [^3H]-MX in both the NCI-H460 and NCI-H460/MX20 cells, as well as the ABCG2-482-R2, ABCG2-482-G2”.

The term IC50 denotes the midpoint of a concentration-inhibition curve.
